Measured values from article PMC11823630, “In vitro potentiation of tetracyclines in Pseudomonas aeruginosa by RW01, a new cyclic peptide” (Antimicrobial Agents and Chemotherapy, 2024).
≈ marks a conversion by molar mass, not a printed value. Where a SMILES comes first, the peptide text is derived from it.

Assays:
[1] = test system: C57BL/6J females; assay: In vivo acute toxicity; design: species or system mice; conditions: single ip dose of 0.2 mL at 250 or 500 mg/L; n = 6 per group; observed 7 days
Experimental: (§1) To study the acute toxicity of RW01, two groups of n = 6 C57BL/6J females (≈20 g) were treated intraperitoneally (ip) with a single dose of 0.2 mL of 250 and 500 mg/L concentrations of RW01, respectively. After administration and for 7 days, the following indicative signs of pain were assessed: reduced water (dehydration), food intake, isolation, self-mutilation, tremors/spasms, dyspnea, physical activity (increased/reduced), chromodacryorrhea, muscle stiffness, piloerection, teeth grinding, and weight loss. For cumulative toxicity determination, a group of n = 6, 7-week-old healthy C57BL/6J females was treated ip, with a 0.2 mL single dose per day for 3 days at a concentration equivalent to 500 mg/L. After administration and for 7 days, the same indicative signs of pain/toxicity detailed in the acute toxicity studies were evaluated.

[2] = test system: C57BL/6J females; assay: In vivo cumulative toxicity; design: species or system mice; conditions: ip 0.2 mL once a day for 3 days at 500 mg/L; n = 6; observed 7 days
Experimental: as §1

[3] = test system: P. aeruginosa 125A; assay: MIC, CLSI broth microdilution in BD Phoenix AST Broth; type: cell-based, Pseudomonas aeruginosa; conditions: strain 125A; antibiotic with RW01 at 100 mg/L
Experimental: (§2) MIC for RW01 was also tested.
(§3) FIC of RW01 (FICRW01)=MIC of RW01 in combination/MIC of RW01 alone,FIC of antibiotic (FICATB)=MIC of ATB in combination/MIC of ATB alone,FICI=FICRW01 +FICATB.
(§4) FICI was interpreted as follows: synergistic effect if FICI is ≤0.5; additive effect if 0.5 < FICI ≤ 1.0; indifferent effect if 1.0 < FICI ≤ 2.0; and finally, antagonistic effect if FICI is >2.0. The average FICI considering the antibiotic MIC (no growth in any of the replicates) at different concentrations of RW01 was calculated ([28]).

[4] = test system: P. aeruginosa 125B; assay: as above; type: cell-based, Pseudomonas aeruginosa; conditions: strain 125B; antibiotic with RW01 at 100 mg/L
Experimental: as §2, §3, §4

[5] = test system: P. aeruginosa 41A; assay: as above; type: cell-based, Pseudomonas aeruginosa; conditions: strain 41A
Experimental: as §2, §3, §4

[6] = test system: P. aeruginosa 41B; assay: as above; type: cell-based, Pseudomonas aeruginosa; conditions: strain 41B
Experimental: as §2, §3, §4

[7] = test system: P. aeruginosa PAO1; assay: as above; type: cell-based, Pseudomonas aeruginosa; conditions: strain PAO1; antibiotic with RW01 at 100 mg/L
Experimental: as §2, §3, §4

[8] = test system: P. aeruginosa PAOUW; assay: as above; type: cell-based, Pseudomonas aeruginosa; conditions: strain PAOUW; antibiotic with RW01 at 100 mg/L
Experimental: as §2, §3, §4

[9] = test system: P. aeruginosa PAOUW∆oprF; assay: as above; type: cell-based, Pseudomonas aeruginosa
Experimental: as §2, §3, §4

[10] = test system: P. aeruginosa PAOΔmexR; assay: as above; type: cell-based, Pseudomonas aeruginosa
Experimental: as §2, §3, §4

[11] = test system: P. aeruginosa PAOΔmexZ; assay: as above; type: cell-based, Pseudomonas aeruginosa; conditions: strain PAOΔmexZ
Experimental: as §2, §3, §4

[12] = test system: P. aeruginosa PAOΔoprM; assay: as above; type: cell-based, Pseudomonas aeruginosa
Experimental: as §2, §3, §4

[13] = test system: PAO1 mutant MIN1_RW01_1, pmrB(Y98N); assay: MIC, E-test on MHA; type: cell-based; conditions: Pseudomonas aeruginosa, PAO1, read-out: MIC, E-test
[14] = test system: PAO1 mutant MIN1_RW01_2, mexR(G58E), pilB(G326D), hutC(Y181X); assay: MIC, E-test on MHA; type: cell-based; conditions: Pseudomonas aeruginosa, PAO1, read-out: MIC, E-test
[15] = test system: PAO1 mutant MIN1_RW01_3, pmrB(V215L); assay: MIC, E-test on MHA; type: cell-based; conditions: Pseudomonas aeruginosa, PAO1, read-out: MIC, E-test
[16] = test system: PAO1 mutant MIN1_RW01_4, pmrB(F124L); assay: MIC, E-test on MHA; type: cell-based; conditions: Pseudomonas aeruginosa, PAO1, read-out: MIC, E-test
[17] = test system: PAO1 mutant MIN2_RW01_1, pmrB(V215L); assay: MIC, E-test on MHA; type: cell-based; conditions: Pseudomonas aeruginosa, PAO1, read-out: MIC, E-test
[18] = test system: PAO1 mutant MIN2_RW01_2, pmrB(M292T); assay: MIC, E-test on MHA; type: cell-based; conditions: Pseudomonas aeruginosa, PAO1, read-out: MIC, E-test
[19] = test system: PAO1 mutant MIN2_RW01_3, parS(V152A); assay: MIC, E-test on MHA; type: cell-based; conditions: Pseudomonas aeruginosa, PAO1, read-out: MIC, E-test
[20] = test system: PAO1 mutant MIN2_RW01_4, pmrB(M292T); assay: MIC, E-test on MHA; type: cell-based; conditions: Pseudomonas aeruginosa, PAO1, read-out: MIC, E-test
[21] = test system: PAO1 mutant MIN4_RW01_1, pmrB(R429H); assay: MIC, E-test on MHA; type: cell-based; conditions: Pseudomonas aeruginosa, PAO1, read-out: MIC, E-test
[22] = test system: PAO1 mutant MIN4_RW01_2, pmrB(F124S); assay: MIC, E-test on MHA; type: cell-based; conditions: Pseudomonas aeruginosa, PAO1, read-out: MIC, E-test
[23] = test system: PAO1 mutant MIN4_RW01_3, pmrB(M292T); assay: MIC, E-test on MHA; type: cell-based; conditions: Pseudomonas aeruginosa, PAO1, read-out: MIC, E-test
[24] = test system: PAO1 mutant MIN4_RW01_4, pmrB(Y98N); assay: MIC, E-test on MHA; type: cell-based; conditions: Pseudomonas aeruginosa, PAO1, read-out: MIC, E-test
[25] = test system: PAO1 mutant MIN8_1, nalD(R3C), pilM(Q62X); assay: MIC, E-test on MHA; type: cell-based; conditions: Pseudomonas aeruginosa, PAO1, read-out: MIC, E-test
[26] = test system: PAO1 mutant MIN8_2, pilZ(nt18InsT); assay: MIC, E-test on MHA; type: cell-based; conditions: Pseudomonas aeruginosa, PAO1, read-out: MIC, E-test
[27] = test system: PAO1 mutant MIN8_3, pilZ(nt18InsT); assay: MIC, E-test on MHA; type: cell-based; conditions: Pseudomonas aeruginosa, PAO1, read-out: MIC, E-test
[28] = test system: PAO1 mutant MIN8_4, pilZ(nt18InsT); assay: MIC, E-test on MHA; type: cell-based; conditions: Pseudomonas aeruginosa, PAO1, read-out: MIC, E-test
[29] = test system: PAO1 mutant MIN16_1, nalD(T43P); assay: MIC, E-test on MHA; type: cell-based; conditions: Pseudomonas aeruginosa, PAO1, read-out: MIC, E-test
[30] = test system: PAO1 mutant MIN16_2, nalC(aa9∆4), pilQ(nt46∆1); assay: MIC, E-test on MHA; type: cell-based; conditions: Pseudomonas aeruginosa, PAO1, read-out: MIC, E-test
[31] = test system: PAO1 mutant MIN16_3, nfxB(nt79∆14), pilB(N349K); assay: MIC, E-test on MHA; type: cell-based; conditions: Pseudomonas aeruginosa, PAO1, read-out: MIC, E-test
[32] = test system: PAO1 mutant MIN16_4, nalC(T50P), pilM(Q62X); assay: MIC, E-test on MHA; type: cell-based; conditions: Pseudomonas aeruginosa, PAO1, read-out: MIC, E-test
[33] = test system: PAO1 mutant MIN32_1, mexR(R63H), pilB(N349K), PA0646(V316G); assay: MIC, E-test on MHA; type: cell-based; conditions: Pseudomonas aeruginosa, PAO1, read-out: MIC, E-test
[34] = test system: PAO1 one-step mutants; assay: MIC, Sensititre custom plate, mutants summarised as a group; type: cell-based, Pseudomonas aeruginosa; conditions: mutants generated by minocycline alone
Experimental: Selection of resistant mutants was performed for minocycline with and without RW01 in three independent replicates for wild-type P. aeruginosa reference strain PAO1. Tubes containing Mueller-Hinton broth (MHB) were inoculated and incubated for 24 h at 37°C. Afterward, 1/100 dilution of each tube was incubated at 37°C in MHB to late-exponential growth phase, measured by spectrophotometry at OD600. […] A control plate without antibiotic was included as inoculum control. After overnight incubation, colony counting of each treatment was performed to analyze the generation of resistant population. The mutant prevention concentration (MPC) was defined as the lowest concentration of antibiotic yielding no growth of resistant mutants. Selected mutants were checked for susceptibility profiles by using a Sensititre custom plate (Thermo Fisher Scientific, Massachusetts, USA) for Gram-negative bacteria, following the manufacturer’s instructions.

[35] = Pseudomonas aeruginosa, agent alone, 37°C, 18–22 h, three biological replicates
[36] = antibiotic with RW01 at 100 mg/L
[37] = strain PAOUWΔoprF (printed PAOΔoprF), antibiotic with RW01 at 100 mg/L
[38] = strain PAOΔmexR, antibiotic with RW01 at 100 mg/L
[39] = strain PAOΔoprM, antibiotic with RW01 at 100 mg/L

For `N=C(N)NCCC[C@@H]1NC(=O)[C@H]2C[C@H](N)CN2C(=O)[C@H](Cc2c[nH]c3ccccc23)NC(=O)[C@H](CCCNC(=N)N)NC(=O)[C@H]2CCCN2C(=O)[C@H](Cc2c[nH]c3ccccc23)NC1=O` [RW01] (HELM PEPTIDE1{R.W.[dP].R.W.[N[C@H]1C[C@H](C(=O)[*:2])N([*:1])C1]}$PEPTIDE1,PEPTIDE1,1:R1-6:R2$$$V2.0), the “signs of pain/toxicity, acute toxicity” value [1] was “None of the doses tested of RW01 showed any of the 11 symptoms indicative of pain/toxicity” and the “signs of pain/toxicity, cumulative toxicity” value [2] was “None of the doses tested of RW01 showed any of the 11 symptoms indicative of pain/toxicity”.
`CN(C)[C@@H]1C(O)=C(C(N)=O)C(=O)[C@@]2(O)C(O)=C3C(=O)c4c(O)cccc4[C@@](C)(O)[C@H]3C[C@@H]12` [Tetracycline, tetracycline] was tested, and the FICI-determined effect [3] was “Synergy (synergistic effect if FICI is ≤0.5)”, the FICI [4] was 0.445 and the FICI-determined effect [4] was “Synergy (synergistic effect if FICI is ≤0.5)”. The MIC [5, 35] was 16 µg/mL, the FICI-determined effect [5, 36] was “Additivity (additive effect if 0.5 < FICI ≤ 1.0)” and the MIC [6, 35] was 16 µg/mL. The FICI-determined effect [6, 36] was “Additivity (additive effect if 0.5 < FICI ≤ 1.0)”, the FICI [7] was 0.445 and the FICI-determined effect [7] was “Synergy (synergistic effect if FICI is ≤0.5)”. The FICI-determined effect [8] was “Synergy (synergistic effect if FICI is ≤0.5)”, the FICI [9, 37] was 0.223 and the FICI-determined effect [9, 37] was “Synergy (synergistic effect if FICI is ≤0.5)”. The MIC ([9]; strain PAOUWΔoprF, agent alone, 37°C, 18–22 h, three biological replicates) was 16 µg/mL, the MIC ([10]; Pseudomonas aeruginosa) was 16 µg/mL and the “Antibiotic MIC + RW01 100 mg/L” value ([10]; strain PAOΔmexR, MIC of the antibiotic with fixed 100 mg/L RW01) was 4 µg/mL. The FICI [10, 38] was 0.348, the FICI-determined effect [10, 38] was “Synergy (synergistic effect if FICI is ≤0.5)” and the MIC [11, 35] was 16 µg/mL. The FICI [11, 36] was 0.223, the FICI-determined effect [11, 36] was “Synergy (synergistic effect if FICI is ≤0.5)” and the MIC ([12]; Pseudomonas aeruginosa) was 1 µg/mL. The “Antibiotic MIC + RW01 100 mg/L” value ([12]; strain PAOΔoprM, MIC of the antibiotic with fixed 100 mg/L RW01) was 0.5 µg/mL, the FICI [12, 39] was 0.598 and the FICI-determined effect [12, 39] was “Additivity (additive effect if 0.5 < FICI ≤ 1.0)”. It also gave an MIC [13] of 192 µg/mL (≈ 432 µM), an MIC [14] of 256 µg/mL (≈ 576 µM) and an MIC [15] of 256 µg/mL (≈ 576 µM). It also gave an MIC [16] of 64 µg/mL (≈ 144 µM), an MIC [17] of 128 µg/mL (≈ 288 µM) and an MIC [18] of 192 µg/mL (≈ 432 µM). For the same molecule, the MIC [19] was 256 µg/mL (≈ 576 µM), the MIC [20] was 96 µg/mL (≈ 216 µM) and the MIC [21] was 256 µg/mL (≈ 576 µM). It also gave an MIC [22] of 64 µg/mL (≈ 144 µM), an MIC [23] of 256 µg/mL (≈ 576 µM) and an MIC [24] of 96 µg/mL (≈ 216 µM). For the same molecule, the MIC [25] was 256 µg/mL (≈ 576 µM), the MIC [26] was 256 µg/mL (≈ 576 µM) and the MIC [27] was 64 µg/mL (≈ 144 µM). It also gave an MIC [28] of 64 µg/mL (≈ 144 µM), an MIC [29] of 256 µg/mL (≈ 576 µM) and an MIC [30] of 96 µg/mL (≈ 216 µM). For the same molecule, the MIC [31] was 128 µg/mL (≈ 288 µM), the MIC [32] was 64 µg/mL (≈ 144 µM) and the MIC [33] was 256 µg/mL (≈ 576 µM).
colistin was tested, and the “colistin MIC vs wild type” value [34] was “remained unchanged”.
